The values that follow come from patent US12091425B2 (AMGEN INC., priority 2016, dated 2024).

The target in the experiment is T1, Mcl-1/Bim interaction, recombinant human Mcl-1 (171-327) (Homo sapiens, UniProt Q07820).
T1 construct: made in house
Description: Cell free Mcl-1: Bim Affinity Assay (Mcl-1 HTRF). The class given is binding. The essentials:
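Read-out is time-resolved FRET after overnight incubation, using a biotin-labelled peptide from human Bim (51-76) as the binding partner; IC50 was derived from competition curves.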
In general terms: In TR-FRET formats the signal depends on donor and acceptor labels being close together.

The mark [1] stands for this setting: cell free Mcl-1:Bim TR-FRET, recombinant human Mcl-1 (171-327).
The mark [2] stands for this setting: TR-FRET, 0.1 nM Mcl-1 (171-327), 0.05 nM biotin-Bim (51-76).

T1 sequence (Q07820 171-327): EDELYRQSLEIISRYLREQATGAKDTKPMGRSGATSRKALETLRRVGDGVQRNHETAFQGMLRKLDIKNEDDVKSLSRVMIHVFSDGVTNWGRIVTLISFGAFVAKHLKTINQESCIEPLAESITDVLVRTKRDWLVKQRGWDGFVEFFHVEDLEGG

One may read the IC50 as the concentration at which inhibition is half-maximal. For `O=C1NS(=O)(=O)/C=C/COC[C@@H](O)[C@@H]2CC[C@H]2CN2C[C@@]3(CCCc4cc(Cl)ccc43)COc3ccc1cc32` (single isomer, unassigned) [Example 917, (3R,6R,7S,11E,22S)-6′-chloro-7-hydroxy-3′,4′-dihydro-2′H,15H-spiro[9,20-dioxa-13-thia-1,14-diazatetracyclo[14.7.2.0^3,6.0^19,24]pentacosa-11,16,18,24-tetraene-22,1′-naphthalen]-15-one 13,13-dioxide or (3R,6R,7R,11E, 22S)-6′-chloro-7-hydroxy-3′,4′-dihydro-2′H,15H-spiro[9,20-dioxa-13-thia-1,14-diazatetracyclo[14.7.2.0^3,6.0^19,24]pentacosa-11,16,18,24-tetraene-22,1′-naphthalen]-15-one 13,13-dioxide], under setting [1], the half-inhibitory concentration (IC50) was found to be 4.11 nM. Still for that read-out and setting: then `O=C1NS(=O)(=O)CCCOC[C@@H](O)[C@@H]2CC[C@H]2CN2C[C@@]3(CCCc4cc(Cl)ccc43)COc3ccc1cc32` (single isomer, unassigned) [Example 923, (3R,6R,7S,22S)-6′-chloro-7-hydroxy-3′,4′-dihydro-2′H,15H-spiro[9,20-dioxa-13-thia-1,14-diazatetracyclo[14.7.2.0^3,6.0^19,24]pentacosa-16,18,24-triene-22,1′-naphthalen]-15-one 13,13-dioxide or (3R,6R,7R,22S)-6′-chloro-7-hydroxy-3′,4′-dihydro-2′H,15H-spiro[9,20-dioxa-13-thia-1,14-diazatetracyclo[14.7.2.0^3,6.0^19,24]pentacosa-16,18,24-triene-22,1′-naphthalen]-15-one 13,13-dioxide], with 17.8 nM. Consider `O=C1NS(=O)(=O)CCC[C@]2(O)CCO[C@H](C2)[C@@H]2CC[C@H]2CN2C[C@@]3(CCCc4cc(Cl)ccc43)COc3ccc1cc32` (single isomer, unassigned) [Example 924], for which the IC50 under setting [1] was determined as 5.07 nM. Same read-out and setting: as for `CN[C@H]1CCCCCS(=O)(=O)NC(=O)c2ccc3c(c2)N(C[C@@H]2CC[C@H]21)C[C@@]1(CCCc2cc(Cl)ccc21)CO3` (single isomer, unassigned) [Example 927, (1S,3′R,6′R,7′S)-6-chloro-7′-(methylamino)-3,4-dihydro-2H,15′H-spiro[naphthalene-1,22′-[20]oxa[13]thia[1,14]diazatetracyclo[14.7.2.0^3,6.0^19,24]pentacosa [16,18,24]trien]-15′-one 13′,13′-dioxide or (1S,3′R,6′R,7′R)-6-chloro-7′-(methylamino)-3,4-dihydro-2H,15′H-spiro[naphthalene-1,22′-[20]oxa[13]thia[1,14]diazatetracyclo[14.7.2.0^3,6.0^19,24]pentacosa [16,18,24]trien]-15′-one 13′,13′-dioxide], the figure is 46.2 nM; as for `O=C1NS(=O)(=O)CCCCC[C@H](NCCO)[C@@H]2CC[C@H]2CN2C[C@@]3(CCCc4cc(Cl)ccc43)COc3ccc1cc32` (single isomer, unassigned) [Example 929], 40 nM; as for `O=C1NS(=O)(=O)CCCCC[C@@H](NCC(F)(F)F)[C@@H]2CC[C@H]2CN2C[C@@]3(CCCc4cc(Cl)ccc43)COc3ccc1cc32` (single isomer, unassigned) [Example 930], 19.6 nM. Regarding `O=C1NS(=O)(=O)CCCCC[C@@H](NO)[C@@H]2CC[C@H]2CN2C[C@@]3(CCCc4cc(Cl)ccc43)COc3ccc1cc32` (single isomer, unassigned) [Example 933, (1S,3′R,6′R,7′R)-6-chloro-7′-(hydroxyamino)-3,4-dihydro-2H,15′H-spiro[naphthalene-1,22′-[20]oxa[13]thia[1,14]diazatetracyclo[14.7.2.0^3,6.0^19,24]pentacosa [16,18,24]trien]-15′-one 13′,13′-dioxide or (1S,3′R,6′R,7′S)-6-chloro-7′-(hydroxyamino)-3,4-dihydro-2H,15′H-spiro[naphthalene-1,22′-[20]oxa[13]thia[1,14]diazatetracyclo[14.7.2.0^3,6.0^19,24]pentacosa [16,18,24]trien]-15′-one 13′,13′-dioxide], under setting [1], the IC50 is 15 nM. Still for that read-out and setting: as for `CC(=O)N[C@@H]1CCCCCS(=O)(=O)NC(=O)c2ccc3c(c2)N(C[C@@H]2CC[C@H]21)C[C@@]1(CCCc2cc(Cl)ccc21)CO3` (single isomer, unassigned) [Example 935, N-((1S,3′R,6′R,7′R)-6-chloro-13′,13′-dioxido-15′-oxo-3,4-dihydro-2H-spiro[naphthalene-1,22′-[20]oxa[13]thia[1,14]diazatetracyclo[14.7.2.0^3,6.0^19,24]pentacosa [16,18,24]trien]-7′-yl)acetamide or N-((1S,3′R,6′R,7′S)-6-chloro-13′,13′-dioxido-15′-oxo-3,4-dihydro-2H-spiro[naphthalene-1,22′-[20]oxa[13]thia[1,14]diazatetracyclo[14.7.2.0^3,6.0^19,24]pentacosa [16,18,24]trien]-7′-yl)acetamide], the figure is 2.07 nM; as for `CC(C)C(=O)N[C@@H]1CCCCCS(=O)(=O)NC(=O)c2ccc3c(c2)N(C[C@@H]2CC[C@H]21)C[C@@]1(CCCc2cc(Cl)ccc21)CO3` (single isomer, unassigned) [Example 936], 4.74 nM. Turning to `O=C1NS(=O)(=O)CCCCC[C@@H](NC(=O)C2CC2)[C@@H]2CC[C@H]2CN2C[C@@]3(CCCc4cc(Cl)ccc43)COc3ccc1cc32` (single isomer, unassigned) [Example 937], under setting [1], the IC50 was 4.75 nM. In the case of `CS(=O)(=O)N[C@@H]1CCCCCS(=O)(=O)NC(=O)c2ccc3c(c2)N(C[C@@H]2CC[C@H]21)C[C@@]1(CCCc2cc(Cl)ccc21)CO3` (single isomer, unassigned) [Example 938], the IC50 under setting [1] was 5.94 nM.

`O=C(CO)N[C@@H]1CCCCCS(=O)(=O)NC(=O)c2ccc3c(c2)N(C[C@@H]2CC[C@H]21)C[C@@]1(CCCc2cc(Cl)ccc21)CO3` (single isomer, unassigned) [Example 939]: the IC50 under setting [1] was determined as 6.67 nM. On the same count and under the same terms, as for `CC(=O)N(C)[C@H]1CCCCCS(=O)(=O)NC(=O)c2ccc3c(c2)N(C[C@@H]2CC[C@H]21)C[C@@]1(CCCc2cc(Cl)ccc21)CO3` (single isomer, unassigned) [Example 940], the figure is 18.6 nM. With `CC(=O)N(C)[C@@H]1CCCCCS(=O)(=O)NC(=O)c2ccc3c(c2)N(C[C@@H]2CC[C@H]21)C[C@@]1(CCCc2cc(Cl)ccc21)CO3` (single isomer, unassigned) [Example 941], the 50% inhibitory concentration (IC50) under setting [1] was 8.33 nM. Take `CN(C(=O)C1CC1)C1CCCCCS(=O)(=O)NC(=O)c2ccc3c(c2)N(CC2CCC21)CC1(CCCc2cc(Cl)ccc21)CO3` (single isomer, unassigned) [Example 942]: under setting [1], the half-maximal inhibitory concentration (IC50) amounted to 36.4 nM. Same read-out and setting: then `CN(C(=O)C1CC1)[C@@H]1CCCCCS(=O)(=O)NC(=O)c2ccc3c(c2)N(C[C@@H]2CC[C@H]21)C[C@@]1(CCCc2cc(Cl)ccc21)CO3` (single isomer, unassigned) [Example 943], with 16.2 nM; and `O=C1NS(=O)(=O)[C@H]2CCN(C2)C(=O)CC[C@@H]2CC[C@H]2CN2C[C@@]3(CCCc4cc(Cl)ccc43)COc3ccc1cc32` (single isomer, unassigned) [Example 946], with 4.15 nM; and `O=C1NS(=O)(=O)CCC[C@@H]2C[C@H]2[C@H](O)[C@@H]2CC[C@H]2CN2C[C@@]3(CCCc4cc(Cl)ccc43)COc3ccc1cc32` (single isomer, unassigned) [Example 950], with 1.49 nM.

For the molecule `C[C@@H]1CC[C@@H]2C[C@H]2[C@H](O)[C@@H]2CC[C@H]2CN2C[C@@]3(CCCc4cc(Cl)ccc43)COc3ccc(cc32)C(=O)NS1(=O)=O` (single isomer, unassigned) [Example 951], under setting [1], the half-maximal inhibitory concentration (IC50) was 13.1 nM. For `O=C1NS(=O)(=O)C(CCOC(F)(F)F)CC/C=C/[C@H](O)[C@@H]2CC[C@H]2CN2C[C@@]3(CCCc4cc(Cl)ccc43)COc3ccc1cc32` (single isomer, unassigned) [Example 1012], the IC50 under setting [2] came to 0.698 nM. Take `O=C1NS(=O)(=O)[C@@H](CCOC(F)(F)F)CC/C=C/[C@H](O)[C@@H]2CC[C@H]2CN2C[C@@]3(CCCc4cc(Cl)ccc43)COc3ccc1cc32` (single isomer, unassigned) [Example 1013]: the IC50 under setting [2] amounted to 18.1 nM.

As for `O=C1NS(=O)(=O)[C@H]2COC[C@H]2C/C=C/[C@H](O)[C@@H]2CC[C@H]2CN2C[C@@]3(CCCc4cc(Cl)ccc43)COc3ccc1cc32` (single isomer, unassigned) [Example 1029], the IC50 under setting [2] was found to be 4.42 nM. For `C[C@@H]1[C@H](C)/C=C/[C@H](O)[C@@H]2CC[C@H]2CN2C[C@@]3(CCCc4cc(Cl)ccc43)COc3ccc(cc32)C(=O)NS(=O)(=O)[C@H]1C` (single isomer, unassigned) [Example 1044], the IC50 under setting [2] is 35.8 nM. On the same count and under the same terms, as for `CC[C@@H]1CC/C=C/[C@@H](NC(C)=O)[C@@H]2CC[C@H]2CN2C[C@@]3(CCCc4cc(Cl)ccc43)COc3ccc(cc32)C(=O)NS1(=O)=O` (single isomer, unassigned) [Example 1078], the figure is 0.557 nM; as for `CC[C@@H]1CC/C=C\[C@@H](NC(C)=O)[C@@H]2CC[C@H]2CN2C[C@@]3(CCCc4cc(Cl)ccc43)COc3ccc(cc32)C(=O)NS1(=O)=O` (single isomer, unassigned) [Example 1079], 5.48 nM; as for `O=C1NS(=O)(=O)C[C@@H](CO)C/C=C/[C@@H](O)[C@@H]2CC[C@H]2CN2C[C@@]3(CCCc4cc(Cl)ccc43)COc3ccc1cc32` (single isomer, unassigned) [Example 1089], 0.874 nM. For the molecule `O=C1NS(=O)(=O)C[C@H](CO)C/C=C/[C@@H](O)[C@@H]2CC[C@H]2CN2C[C@@]3(CCCc4cc(Cl)ccc43)COc3ccc1cc32` (single isomer, unassigned) [Example 1090], the IC50 under setting [2] was determined as 2.77 nM.
